From patent publication US20240002354A1, “ANTIDIABETIC COMPOUNDS AND COMPOSITIONS” (REZUBIO PHARMACEUTICALS CO., LTD, priority 2020, published 2024)

Target: T1, GPR40 (Homo sapiens, UniProt O14842)
T1 construct: expressed in transfected cells
Experiment: IP1 accumulation assay (Cisbio IP-One HTRF) in HEK293 cells stably expressing GPR40
Assay type: cell-based
Conditions: HEK293 cells stably expressing GPR40, 37° C. for 2 hours, % Effect relative to AMG-1638 positive control
Procedure: IP1 accumulation assay was used to evaluate the potency of compounds. HEK293 cells stably expressing GPR40 were cultured in 5% CO2 incubator (ThermoFisher) in maintenance media (Dulbecco's modified Eagle's medium with 4.5 g/L of glucose, 10% fetal bovine serum, 100 μg/mL Hygromycin, and Penicillin (100 U/mL)/Streptomycin (100 μg/mL)) till 100% confluency. Cells were harvested freshly, spun down at 300×g for 5 min, and resuspended in pre-warmed 1× stimulant buffer from Cisbio IP-One HTRF Detection kit (Cisbio). Cell density was adjusted to 2.0×10^6 cells/mL. DMSO was used as blank control and AMG-1638 (CAS #: 1142214-62-7) as positive control. Compounds were prepared at 10 mM in DMSO and 5 nL of 3× serially diluted compounds (10 concentrations) were added to each well of the 384-LDV assay plate (Corning) by using ECHO 550 (Labcyte). Five μL of cells in suspension were transferred into each well by using Multidrop Combi Reagent Dispenser (ThermoFisher). Assay plate was then sealed and incubated at 37° C. for 2 hours. IP-d2 reagent and anti-IP1 reagent were prepared following the manual (Cisbio). Five μL of IP1-d2 and then 5 μL of anti-IP1 antibody was added to each well sequentially. Assay plate was incubated at room temperature for 60 min and then read at 665 nm/615 nm on an Envision plate reader (PerkinElmer). The ratio of values obtained at 665 nm and 615 nm was used for calculation of IP1 accumulation: % Effect=(Ratiosample−Ratioblank)/(RatioAMG-1638−Ratioblank)×100. Dose curve was fitted and EC50 of each compound was calculated by using XLFit.

T1 sequence (O14842 whole entry): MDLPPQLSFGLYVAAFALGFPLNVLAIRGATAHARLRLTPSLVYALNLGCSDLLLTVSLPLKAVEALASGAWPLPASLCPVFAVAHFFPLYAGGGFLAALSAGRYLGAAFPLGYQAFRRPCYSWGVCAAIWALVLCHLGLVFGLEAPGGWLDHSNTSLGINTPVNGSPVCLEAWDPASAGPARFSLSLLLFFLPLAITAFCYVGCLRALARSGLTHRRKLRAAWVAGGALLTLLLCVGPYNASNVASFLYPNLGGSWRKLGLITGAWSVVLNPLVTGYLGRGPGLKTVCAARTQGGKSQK

**Q.** For `C[C@H](C(=O)O)[C@H](c1ccc2c(c1)O[C@@H](C1CCN(Cc3cc(CN=[N+]=[N-])ccc3OC(F)(F)F)CC1)CC2)C1CC1` [Compound 201], which EC50 is on record?
**A.** The EC50 was 1 to 50 nM.

**Q.** For `C#CCOc1cc(COc2cccc([C@H](CC)CC(=O)O)c2)ccc1-c1cc(OC)ccc1F` [Compound No. 211], which EC50 is on record?
**A.** The EC50 was 1000 to 5000 nM.

**Q.** How did the EC50 turn out when `CC[C@H](CC(=O)O)c1cccc(OCc2ccc(-c3cc(OC)ccc3F)c(OCc3cn(CCCCCCCCCCCCCCCCCC(=O)O)nn3)c2)c1` [Compound No. 212] was run?
**A.** The EC50 was at least 5000 nM.

**Q.** For `CCCCCCn1cc(COc2cc(COc3cccc([C@H](CC)CC(=O)O)c3)ccc2-c2cc(OC)ccc2F)nn1` [Compound No. 213], which EC50 is on record?
**A.** The EC50 was 1000 to 5000 nM.

**Q.** For `COc1ccc(F)c(-c2ccc(COc3cccc([C@@H](CC(=O)O)C4CC4)c3)cc2C(C)(C)N=[N+]=[N-])c1` [Compound No. 216, (S)-3-(3-((2-(2-azidopropan-2-yl)-2′-fluoro-5′-methoxy-[1,1′-biphenyl]-4-yl)methoxy)phenyl)-3-cyclopropylpropanoic acid], which EC50 is on record?
**A.** Its EC50 is 1 to 50 nM.

**Q.** With `C#CC(C)(C)c1cc(COc2cccc([C@@H](CC(=O)O)C3CC3)c2)ccc1-c1cc(OC)ccc1F` [Compound No. 217, (S)-3-cyclopropyl-3-(3-((2′-fluoro-5′-methoxy-2-(2-methylbut-3-yn-2-yl)-[1,1′-biphenyl]-4-yl)methoxy)phenyl)propanoic acid] as the molecule, how does the EC50 read?
**A.** Its EC50 is 1 to 50 nM.

**Q.** `CCCCCCc1cn(C(C)(C)c2cc(COc3cccc([C@@H](CC(=O)O)C4CC4)c3)ccc2-c2cc(OC)ccc2F)nn1` [Compound No. 218, (S)-3-cyclopropyl-3-(3-((2′-fluoro-2-(2-(4-hexyl-1H-1,2,3-triazol-1-yl)propan-2-yl)-5′-methoxy-[1,1′-biphenyl]-4-yl)methoxy)phenyl)propanoic acid] was tested. Which EC50 did it give?
**A.** The EC50 was 250 to 1000 nM.

**Q.** How did the EC50 turn out when `CCCCCCn1cc(C(C)(C)c2cc(COc3cccc([C@@H](CC(=O)O)C4CC4)c3)ccc2-c2cc(OC)ccc2F)nn1` [Compound No. 219, (S)-3-cyclopropyl-3-(3-{2′-fluoro-2-[1-(1-hexyl-1H-[1,2,3]triazol-4-yl)-1-methyl-ethyl]-5′-methoxy-biphenyl-4-ylmethoxy}-phenyl)-propionic acid] was run?
**A.** The EC50 was 250 to 1000 nM.

**Q.** For `COc1ccc(F)c(-c2ccc(COc3cccc([C@@H](CC(=O)O)C4CC4)c3)cc2C(C)(C)n2cc(CCCCCCCCCCCCCCCCCC(=O)O)nn2)c1` [Compound No. 220, (S)-18-(1-(2-(4-((3-(2-carboxy-1-cyclopropylethyl)phenoxy)methyl)-2′-fluoro-5′-methoxy-[1,1′-biphenyl]-2-yl)propan-2-yl)-1H-1,2,3-triazol-4-yl)octadecanoic acid], which EC50 is on record?
**A.** The EC50 was 1000 to 5000 nM.

**Q.** For `COc1ccc(F)c(-c2ccc(COc3cccc([C@@H](CC(=O)O)C4CC4)c3)cc2C(C)(C)c2cn(CCCCCCCCCCCCCCCCCC(=O)O)nn2)c1` [Compound No. 221, (S)-18-[4-(1-{4-[3-(2-Carboxy-1-cyclopropyl-ethyl)-phenoxymethyl]-2′-fluoro-5′-methoxy-biphenyl-2-yl}-1-methyl-ethyl)-[1,2,3]triazol-1-yl]-octadecanoic acid], which EC50 is on record?
**A.** The EC50 was 250 to 1000 nM.

**Q.** For `COc1ccc(F)c(-c2ccc(COc3cccc([C@@H](CC(=O)O)C4CC4)c3)cc2C(C)(C)CN=[N+]=[N-])c1` [Compound No. 224], which EC50 is on record?
**A.** The EC50 was 1 to 50 nM.

**Q.** How did the EC50 turn out when `CCCCCCc1cn(CC(C)(C)c2cc(COc3cccc([C@@H](CC(=O)O)C4CC4)c3)ccc2-c2cc(OC)ccc2F)nn1` [Compound No. 225, (S)-3-cyclopropyl-3-(3-{2′-fluoro-2-[2-(4-hexyl-[1,2,3]triazol-1-yl)-1,1-dimethyl-ethyl]-5′-methoxy-biphenyl-4-ylmethoxy}-phenyl)-propionic acid] was run?
**A.** Its EC50 is 50 to 250 nM.

**Q.** For `COc1ccc(F)c(-c2ccc(COc3cccc([C@@H](CC(=O)O)C4CC4)c3)cc2C(C)(C)Cn2cc(CCCCCCCCCCCCCCCCCC(=O)O)nn2)c1` [Compound No. 226, (S)-18-(1-(2-(4-((3-(2-carboxy-1-cyclopropylethyl)phenoxy)methyl)-2′-fluoro-5′-methoxy-[1,1′-biphenyl]-2-yl)-2-methylpropyl)-1H-1,2,3-triazol-4-yl)octadecanoic acid], which EC50 is on record?
**A.** The EC50 was 50 to 250 nM.

**Q.** Which EC50 does the source give for `COC(=O)CCCCCCCCCCCCCCCCCc1cn(CC(C)(C)c2cc(COc3cccc([C@@H](CC(=O)O)C4CC4)c3)ccc2-c2cc(OC)ccc2F)nn1` [Compound No. 227, (S)-3-cyclopropyl-3-(3-((2′-fluoro-5′-methoxy-2-(1-(4-(18-methoxy-18-oxooctadecyl)-1H-1,2,3-triazol-1-yl)-2-methylpropan-2-yl)-[1,1′-biphenyl]-4-yl)methoxy)phenyl)propanoic acid] here?
**A.** Its EC50 is at least 5000 nM.

**Q.** For `C#CCOCC(C)(C)c1cc(COc2cccc([C@@H](CC(=O)O)C3CC3)c2)ccc1-c1cc(OC)ccc1F` [Compound No. 228, (S)-3-cyclopropyl-3-(3-((2′-fluoro-5′-methoxy-2-(2-methyl-1-(prop-2-yn-1-yloxy)propan-2-yl)-[1,1′-biphenyl]-4-yl)methoxy)phenyl)propanoic acid], which EC50 is on record?
**A.** Its EC50 is 50 to 250 nM.

**Q.** How did the EC50 turn out when `CCCCCCn1cc(COCC(C)(C)c2cc(COc3cccc([C@@H](CC(=O)O)C4CC4)c3)ccc2-c2cc(OC)ccc2F)nn1` [Compound No. 229, (S)-3-cyclopropyl-3-(3-((2′-fluoro-2-(1-((1-hexyl-1H-1,2,3-triazol-4-yl)methoxy)-2-methylpropan-2-yl)-5′-methoxy-[1,1′-biphenyl]-4-yl)methoxy)phenyl) propanoic acid] was run?
**A.** Its EC50 is 250 to 1000 nM.

**Q.** `COc1ccc(F)c(-c2ccc(COc3cccc([C@@H](CC(=O)O)C4CC4)c3)cc2C(C)(C)COCc2cn(CCCCCCCCCCCCCCCCCC(=O)O)nn2)c1` [Compound No. 230] was tested. Which EC50 did it give?
**A.** Its EC50 is 250 to 1000 nM.

**Q.** For `COC(=O)CCCCCCCCCCCCCCCCCn1cc(COCC(C)(C)c2cc(COc3cccc([C@@H](CC(=O)O)C4CC4)c3)ccc2-c2cc(OC)ccc2F)nn1` [Compound No. 231, (S)-3-cyclopropyl-3-(3-((2′-fluoro-5′-methoxy-2-(1-((1-(18-methoxy-18-oxooctadecyl)-1H-1,2,3-triazol-4-yl)methoxy)-2-methylpropan-2-yl)-[1,1′-biphenyl]-4-yl)methoxy)phenyl)propanoic acid], which EC50 is on record?
**A.** The EC50 was at least 5000 nM.

**Q.** `COc1ccc(F)c(-c2ccc(COc3cccc([C@@H](CC(=O)O)C4CC4)c3)cc2C(OCCCCN=[N+]=[N-])C(C)(C)C)c1` (stereo partly drawn) [Compound No. 232, (3S)-3-(3-((2-(1-(4-azidobutoxy)-2,2-dimethylpropyl)-2′-fluoro-5′-methoxy-[1,1′-biphenyl]-4-yl)methoxy)phenyl)-3-cyclopropylpropanoic acid] was tested. Which EC50 did it give?
**A.** Its EC50 is 1 to 50 nM.

**Q.** For `CCCCCCc1cn(CCCCCOC(c2cc(COc3cccc([C@@H](CC(=O)O)C4CC4)c3)ccc2-c2cc(OC)ccc2F)C(C)(C)C)nn1` (stereo partly drawn) [Compound No. 233], which EC50 is on record?
**A.** Its EC50 is 1 to 50 nM.

**Q.** How did the EC50 turn out when `COc1ccc(F)c(-c2ccc(COc3cccc([C@@H](CC(=O)O)C4CC4)c3)cc2C(OCCCCCn2cc(CCCCCCCCCCCCCCCCCC(=O)O)nn2)C(C)(C)C)c1` (stereo partly drawn) [Compound No. 234] was run?
**A.** Its EC50 is 250 to 1000 nM.

**Q.** How did the EC50 turn out when `COC(=O)CCCCCCCCCCCCCCCCCc1cn(CCCCCOC(c2cc(COc3cccc([C@@H](CC(=O)O)C4CC4)c3)ccc2-c2cc(OC)ccc2F)C(C)(C)C)nn1` (stereo partly drawn) [Compound No. 235] was run?
**A.** The EC50 was at least 5000 nM.

**Q.** With `COc1ccc(F)c(-c2ccc(COc3cccc([C@@H](CC(=O)O)C4CC4)c3)cc2C(OC)C(C)(C)CN=[N+]=[N-])c1` (stereo partly drawn) [Compound No. 236, (3S)-3-(3-((2-(3-azido-1-methoxy-2,2-dimethylpropyl)-2′-fluoro-5′-methoxy-[1,1′-biphenyl]-4-yl)methoxy)phenyl)-3-cyclopropylpropanoic acid] as the molecule, how does the EC50 read?
**A.** The EC50 was 1 to 50 nM.

**Q.** How did the EC50 turn out when `COc1ccc(F)c(-c2ccc(COc3cccc([C@@H](CC(=O)O)C4CC4)c3)cc2CC(C)(C)CN=[N+]=[N-])c1` [Compound No. 237, (S)-3-(3-((2-(3-azido-2,2-dimethylpropyl)-2′-fluoro-5′-methoxy-[1,1′-biphenyl]-4-yl)methoxy)phenyl)-3-cyclopropylpropanoic acid] was run?
**A.** Its EC50 is 1 to 50 nM.

**Q.** Which EC50 does the source give for `CCCCCCn1cc(-c2ccc(OC(F)(F)F)c(CN3CCC([C@H]4CCc5ccc([C@H](C6CC6)[C@H](C)C(=O)O)cc5O4)CC3)c2)nn1` [compound 187, (2S,3R)-3-cyclopropyl-3-((R)-2-(1-(5-(1-hexyl-1H-1,2,3-triazol-4-yl)-2-(trifluoro-methoxy)benzyl)piperidin-4-yl)chroman-7-yl)-2-methylpropanoic acid] here?
**A.** The EC50 was 50 to 250 nM.

**Q.** For `CCCCCCc1cn(-c2ccc(OC(F)(F)F)c(CN3CCC([C@H]4CCc5ccc([C@H](C6CC6)[C@H](C)C(=O)O)cc5O4)CC3)c2)nn1` [compound 188, (2S,3R)-3-cyclopropyl-3-((R)-2-(1-(5-(4-hexyl-1H-1,2,3-triazol-1-yl)-2-(trifluoro-methoxy)benzyl)piperidin-4-yl)chroman-7-yl)-2-methylpropanoic acid], which EC50 is on record?
**A.** Its EC50 is 1 to 50 nM.

**Q.** Which EC50 does the source give for `CCCCCCc1cn(CCc2ccc(OC(F)(F)F)c(CN3CCC([C@H]4CCc5ccc([C@H](C6CC6)[C@H](C)C(=O)O)cc5O4)CC3)c2)nn1` [compound 189, (2S,3R)-3-cyclopropyl-3-((R)-2-(1-(5-(2-(4-hexyl-1H-1,2,3-triazol-1-yl)ethyl)-2-(trifluoro-methoxy)benzyl)piperidin-4-yl)chroman-7-yl)-2-methylpropanoic acid] here?
**A.** Its EC50 is 1 to 50 nM.
